Legend:
Assay in all cases: Test D controlled growth environment herbicide test, pre- and postemergence
Assay type in all cases: in vivo
[1] = system: Russian thistle (Salsola kali)
How it was run: (§1)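 Species sown in silt loam and sprayed preemergence, or grown in peat-based medium to 2–18 cm (1- to 4-leaf stage) and sprayed postemergence, with compounds in non-phytotoxic solvent plus surfactant. Visual injury scored versus controls after 14–21 d in a controlled environment, 0 (no effect) to 100 (complete control).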

[2] = system: blackgrass (Alopecurus myosuroides)
How it was run: as §1

[3] = system: chickweed (common chickweed, Stellaria media)
How it was run: as §1

[4] = system: deadnettle (henbit deadnettle, Lamium amplexicaule)
How it was run: as §1

[5] = system: field poppy (Papaver rhoeas)
How it was run: as §1

[6] = system: field violet (Viola arvensis)
How it was run: as §1

[7] = system: oilseed rape (Brassica napus)
How it was run: as §1

[8] = system: pigweed (Amaranthus retroflexus)
How it was run: as §1

[9] = system: radish, wild (wild radish, Raphanus raphanistrum)
How it was run: as §1

[10] = system: ryegrass, Italian (Italian ryegrass, Lolium multiflorum)
How it was run: as §1

[11] = system: wheat, spring (spring wheat, Triticum aestivum)
How it was run: as §1

[12] = system: wheat, winter (winter wheat, Triticum aestivum)
How it was run: as §1

[13] = system: windgrass (Apera spica-venti)
How it was run: as §1

[14] = Postemergence, 31 g ai/ha, scale 0 to 100 (0 no effect, 100 complete control)
[15] = Postemergence, 125 g ai/ha, visual rating on scale 0 (no effect) to 100 (complete control), 14 to 21 d
[16] = Postemergence, 250 g ai/ha, scale 0 to 100 (0 no effect, 100 complete control)
[17] = Preemergence, 125 g ai/ha, scale 0 to 100 (0 no effect, 100 complete control)
[18] = Preemergence, 250 g ai/ha, scale 0 to 100 (0 no effect, 100 complete control)
[19] = postemergence, 62 g ai/ha, scale 0 to 100, 0 no effect, 100 complete control

## C#CCOC(=O)Oc1c(C)nn(C)c(=O)c1-c1c(C)sc2ccc(C)cc12 [Compound 87]
[1]; [14]
  Russian Thistle plant response rating: 60
[1]; [15]
  Plant response rating, Russian Thistle: 65
[1]; [16]
  Plant response rating, Russian Thistle: 75
[1]; Preemergence, 31 g ai/ha
  Plant response rating (scale of 0 to 100), Russian Thistle: 5
[1]; Preemergence, 62 g ai/ha
  Plant response rating (scale of 0 to 100), Russian Thistle: 15
[1]; [17]
  Plant response rating, Russian Thistle: 85
[1]; [18]
  Plant response rating, Russian Thistle: 100
[1]; [19]
  Plant response rating, Russian Thistle: 65
[2]; [14]
  Blackgrass plant response rating: 65
[2]; [15]
  Plant response rating, Blackgrass: 85
[2]; [16]
  Plant response rating, Blackgrass: 90
[2]; Preemergence, 31 g ai/ha
  Plant response rating (scale of 0 to 100), Blackgrass: 70
[2]; Preemergence, 62 g ai/ha, scale 0 to 100 (0 no effect, 100 complete control)
  Plant response rating, Blackgrass: 75
[2]; [17]
  Plant response rating, Blackgrass: 80
[2]; [18]
  Plant response rating, Blackgrass: 80
[2]; [19]
  Plant response rating, Blackgrass: 75
[3]; [14]
  Chickweed plant response rating: 85
[3]; [15]
  Plant response rating, Chickweed: 100
[3]; [16]
  Plant response rating, Chickweed: 100
[3]; Preemergence, 31 g ai/ha
  Plant response rating (scale of 0 to 100), Chickweed: 100
[3]; Preemergence, 62 g ai/ha
  Plant response rating (scale of 0 to 100), Chickweed: 100
[3]; [17]
  Plant response rating, Chickweed: 100
[3]; [18]
  Plant response rating, Chickweed: 100
[3]; [19]
  Plant response rating, Chickweed: 90
[4]; [14]
  Deadnettle plant response rating: 10
[4]; [15]
  Plant response rating, Deadnettle: 35
[4]; [16]
  Plant response rating, Deadnettle: 60
[4]; Preemergence, 31 g ai/ha
  Plant response rating (scale of 0 to 100), Deadnettle: 25
[4]; Preemergence, 62 g ai/ha
  Plant response rating (scale of 0 to 100), Deadnettle: 35
[4]; [17]
  Plant response rating, Deadnettle: 65
[4]; [18]
  Plant response rating, Deadnettle: 70
[4]; [19]
  Plant response rating, Deadnettle: 15
[5]; [14]
  Field Poppy plant response rating: 70
[5]; [15]
  Plant response rating, Field Poppy: 85
[5]; [16]
  Plant response rating, Field Poppy: 100
[5]; Preemergence, 31 g ai/ha
  Plant response rating (scale of 0 to 100), Field Poppy: 100
[5]; Preemergence, 62 g ai/ha
  Plant response rating (scale of 0 to 100), Field Poppy: 100
[5]; [17]
  Plant response rating, Field Poppy: 100
[5]; [18]
  Plant response rating, Field Poppy: 100
[5]; [19]
  Plant response rating, Field Poppy: 85
[6]; [14]
  Field Violet plant response rating: 80
[6]; [15]
  Plant response rating, Field Violet: 100
[6]; [16]
  Plant response rating, Field Violet: 100
[6]; Preemergence, 31 g ai/ha
  Plant response rating (scale of 0 to 100), Field Violet: 80
[6]; Preemergence, 62 g ai/ha
  Plant response rating (scale of 0 to 100), Field Violet: 85
[6]; [17]
  Plant response rating, Field Violet: 95
[6]; [18]
  Plant response rating, Field Violet: 100
[6]; [19]
  Plant response rating, Field Violet: 85
[7]; [14]
  Oilseed Rape plant response rating: 15
[7]; [15]
  Plant response rating, Oilseed Rape: 65
[7]; [16]
  Plant response rating, Oilseed Rape: 75
[7]; Preemergence, 31 g ai/ha
  Plant response rating (scale of 0 to 100), Oilseed Rape: 15
[7]; Preemergence, 62 g ai/ha
  Plant response rating (scale of 0 to 100), Oilseed Rape: 30
[7]; [17]
  Plant response rating, Oilseed Rape: 30
[7]; [18]
  Plant response rating, Oilseed Rape: 45
[7]; [19]
  Plant response rating, Oilseed Rape: 40
[8]; [14]
  Pigweed plant response rating: 95
[8]; [15]
  Plant response rating, Pigweed: 100
[8]; [16]
  Plant response rating, Pigweed: 100
[8]; Preemergence, 31 g ai/ha
  Plant response rating (scale of 0 to 100), Pigweed: 50
[8]; Preemergence, 62 g ai/ha
  Plant response rating (scale of 0 to 100), Pigweed: 100
[8]; [17]
  Plant response rating, Pigweed: 100
[8]; [18]
  Plant response rating, Pigweed: 100
[8]; [19]
  Plant response rating, Pigweed: 100
[9]; [14]
  Radish, Wild plant response rating: 15
[9]; [15]
  Plant response rating, Radish, Wild: 30
[9]; [16]
  Plant response rating, Radish, Wild: 60
[9]; Preemergence, 31 g ai/ha
  Plant response rating (scale of 0 to 100), Radish, Wild: 45
[9]; Preemergence, 62 g ai/ha
  Plant response rating (scale of 0 to 100), Radish, Wild: 65
[9]; [17]
  Plant response rating, Radish, Wild: 75
[9]; [18]
  Plant response rating, Radish, Wild: 95
[9]; [19]
  Plant response rating, Radish, Wild: 20
[10]; [14]
  Ryegrass, Italian plant response rating: 90
[10]; [15]
  Plant response rating, Ryegrass, Italian: 95
[10]; [16]
  Plant response rating, Ryegrass, Italian: 98
[10]; Preemergence, 31 g ai/ha
  Plant response rating (scale of 0 to 100), Ryegrass, Italian: 90
[10]; Preemergence, 62 g ai/ha
  Plant response rating (scale of 0 to 100), Ryegrass, Italian: 95
[10]; [17]
  Plant response rating, Ryegrass, Italian: 98
[10]; [18]
  Plant response rating, Ryegrass, Italian: 98
[10]; [19]
  Plant response rating, Ryegrass, Italian: 95
[11]; [14]
  Wheat, Spring plant response rating: 0
[11]; [15]
  Plant response rating, Wheat, Spring: 5
[11]; [16]
  Plant response rating, Wheat, Spring: 10
[11]; Preemergence, 31 g ai/ha
  Plant response rating (scale of 0 to 100), Wheat, Spring: 0
[11]; Preemergence, 62 g ai/ha
  Plant response rating (scale of 0 to 100), Wheat, Spring: 0
[11]; [17]
  Plant response rating, Wheat, Spring: 15
[11]; [18]
  Plant response rating, Wheat, Spring: 20
[11]; [19]
  Plant response rating, Wheat, Spring: 0
[12]; [14]
  Wheat, Winter plant response rating: 0
[12]; [15]
  Plant response rating, Wheat, Winter: 0
[12]; [16]
  Plant response rating, Wheat, Winter: 5
[12]; Preemergence, 31 g ai/ha
  Plant response rating (scale of 0 to 100), Wheat, Winter: 0
[12]; Preemergence, 62 g ai/ha
  Plant response rating (scale of 0 to 100), Wheat, Winter: 0
[12]; [17]
  Plant response rating, Wheat, Winter: 0
[12]; [18]
  Plant response rating, Wheat, Winter: 15
[12]; [19]
  Plant response rating, Wheat, Winter: 0
[13]; [14]
  Windgrass plant response rating: 80
[13]; [15]
  Plant response rating, Windgrass: 85
[13]; [16]
  Plant response rating, Windgrass: 100
[13]; Preemergence, 31 g ai/ha
  Plant response rating (scale of 0 to 100), Windgrass: 80
[13]; Preemergence, 62 g ai/ha
  Plant response rating (scale of 0 to 100), Windgrass: 80
[13]; [17]
  Plant response rating, Windgrass: 85
[13]; [18]
  Plant response rating, Windgrass: 100
[13]; [19]
  Plant response rating, Windgrass: 85
